Here are results for one compound from ChEMBL document CHEMBL1127488, “Interaction of tetrahydrostilbazoles with monoamine oxidase A and B” (J Med Chem, 1994).

This assay addresses T1, Amine oxidase [flavin-containing] A (Homo sapiens, UniProt P21397).
T1 sequence (P21397 whole entry): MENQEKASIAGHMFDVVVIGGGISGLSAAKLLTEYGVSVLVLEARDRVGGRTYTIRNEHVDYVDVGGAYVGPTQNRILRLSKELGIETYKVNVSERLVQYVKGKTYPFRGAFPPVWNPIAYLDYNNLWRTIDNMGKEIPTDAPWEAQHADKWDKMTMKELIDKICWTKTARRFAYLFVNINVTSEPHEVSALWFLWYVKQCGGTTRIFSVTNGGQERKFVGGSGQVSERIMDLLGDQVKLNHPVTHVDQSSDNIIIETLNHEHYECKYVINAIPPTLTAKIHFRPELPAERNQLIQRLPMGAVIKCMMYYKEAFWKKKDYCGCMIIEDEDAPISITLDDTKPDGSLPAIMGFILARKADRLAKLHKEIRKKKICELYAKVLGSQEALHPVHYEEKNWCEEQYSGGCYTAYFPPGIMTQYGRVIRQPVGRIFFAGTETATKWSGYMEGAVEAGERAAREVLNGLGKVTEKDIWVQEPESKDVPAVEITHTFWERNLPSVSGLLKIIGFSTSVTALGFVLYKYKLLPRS
Nature of the assay: Compound was tested for the inhibition of monoamine oxidase A (MAO A) from human liver.

Consider `C[C@@H]1NC(=O)[C@H](NC(=O)[C@@H](N)Cc2ccc(O)cc2)C(C)(C)SSC(C)(C)[C@@H](C(O)O)NC(=O)[C@H](Cc2ccccc2)NC1=O`, for which the affinity corresponds to a Ki of 2000 nM. In other words, the single-digit micromolar range.
